This note sets out measurements from US20210267978A1, “NANOPARTICLE FORMULATIONS OF IKE AND METHODS OF USE THEREOF” (The Trustees of Columbia University in the City of New York, priority 2018, published 2021).

Holding throughout (type): cell-based
One assay has as its system SUDHL 5. Put plainly: DLBCL cell line sensitivity to IKE (CellTiter-Glo viability, 24 h). As to conditions: Homo sapiens, SU-DHL-5; SUDHL 5, 24 hours; read-out: cell line sensitivity to IKE (IC50 class). The procedure: (§1) DLBCL cells were plated at 10,000 cells per well in white 384-well plates (32 μL per well) in technical duplicates and incubated overnight. The cells were then treated with 8 μL medium containing a two-fold dilution series of vehicle (DMSO), IKE (starting from 100 μM) with or without Fer-1 (starting from 200 μM). After 24 h incubation, 40 μL of 50% CellTiter-Glo (Promega) 50% cell culture medium was added to each well and incubated at room temperature with shaking for 15 min. Luminescence was measured using a Victor X5 plate reader (PerkinElmer). All cell viability data were normalized to the DMSO vehicle condition. Experiments were performed three independent times with different passages for each cell line.
(ATP-based viability assays read luminescence as a measure of living cells.)

A further assay has as its system RIVA. The description is as above. The method, then:
as §1

In the next assay the test system is SUDHL 10. The description is as above. As to conditions: Homo sapiens, SU-DHL10; SUDHL 10, 24 hours; read-out: cell line sensitivity to IKE (IC50 class). The procedure:
as §1

A further assay deals with KARPAS 422. The assay is described as above. The conditions noted are these: KARPAS 422, 24 hours. The method, then:
as §1

The subject of another assay is U2932. The description is as above. As to conditions: Homo sapiens; U2932, 24 hours; read-out: cell line sensitivity to IKE (IC50 class). The method, then: as §1
Another assay relates to WSU-NHL. The assay is described as above. The method, then: as §1
For a further assay, the system named is HBL 1. The assay is described as above. The conditions noted are these: HBL 1, 24 hours. The method, then: as §1
Another assay concerns SUDHL 16. The assay is described as above. The conditions noted are these: Homo sapiens, SU-DHL-16; SUDHL 16, 24 hours; read-out: cell line sensitivity to IKE (IC50 class). The method, then: as §1
A further assay concerns SUDHL 2. The description is as above. The conditions noted are these: Homo sapiens, SU-DHL-2; SUDHL 2, 24 hours; read-out: cell line sensitivity to IKE (IC50 class). The procedure:
as §1

The next assay has as its system LY 7. Described as above. As to conditions: LY7; LY 7, 24 hours; read-out: cell line sensitivity to IKE (IC50 class). The method, then:
as §1

Another assay concerns SUDHL6 cells. Description: Immunofluorescence of MDA (mAb 1F83) on cells. The conditions noted are these: 10 μM IKE for 6 hours vs DMSO. The procedure:
SUDHL-6 cells were treated with IKE. The cells were harvested by centrifugation and washed with PBS once. The cells were resuspended in PBS, fixed by adding equal volume of 4% paraformaldehyde (PFA), and incubated at room temperature for 15 min. The cells were washed with PBS/0.1% Tween 20 (PBST) twice, resuspended in 10% goat serum (ThermoFisher 50197Z) for 1 h. The cells were incubated with mouse mAb 1F83, which specifically recognizes malondialdehyde (MDA)-lysine adduct 4-methyl-1,4-dihydropyridine-3,5-dicarbaldehyde (MDHDC) (Yamada et al. 2001, Hyvarinen et al. 2014) (1:100 dilution) overnight at 4° C. The cells were washed with PBS three times by centrifugation. The cells were incubated with goat anti-mouse IgG H&L (Alexa Fluor 647) (Abcam ab150115) (1:1000) at room temperature for 1 h. The cells were washed with PBST twice by centrifugation, then resuspended in PBS in 24-well plate with poly-lysine-(Sigma Aldrich P4832)-coated cover slips and centrifuged at 1,000×g for 10 min. […] When applicable, line-scan analysis was performed on representative confocal microscopy images using Zeiss LSM software to qualitatively visualize fluorescence overlap. The intensity above threshold of the fluorescent signal of the bound antibodies was analyzed using NIH ImageJ software. Data were expressed as fold change compared with the vehicle.

The structures appear in SMILES notation. pIC50: −log10 of the molar value.

In general, pIC50 refers to the negative decadic logarithm of the IC50, by convention in mol/L. For the molecule `CC(C)Oc1ccc(C(=O)Cn2ccnc2)cc1-n1c(CN2CCN(C(=O)COc3ccc(Cl)cc3)CC2)nc2ccccc2c1=O` [IKE, Imidazole ketone erastin], the pIC50 with SUDHL 5 is over 7.00; with SUDHL 10, over 7.00; with U2932, under 5.00; in the assay on SUDHL 16 it was over 7.00; in the assay on SUDHL 2 it was over 7.00; in the assay with LY 7 it was under 5.00. Besides, the “cell line sensitivity to IKE (IC50 class)” value in the assay with RIVA, in the assay on KARPAS 422, in the assay on WSU-NHL and in the assay with HBL 1 was “moderately resistant” each time. For the same molecule, in the assay with SUDHL6 cells, the “MDA immunofluorescence intensity increase” value came out at 3.4 fold.
